Data on one molecule can be found in US5703056A, “Non-invasive imaging of gene transfer” (priority 1995, dated 1997).

One series has as its target HSV1-TK (Human alphaherpesvirus 1 strain 17, UniProt P0DTH5). Put plainly: Single 120 minute paired accumulation of FIAU and IUdR by RG2TK+ and RG2 cells. Particulars: Data from FIG. 6A. In kind it is cell-based, herpes simplex virus. As to the method: The processing of cells and incubation medium was the same as that described above. A portion of the harvested cells was also processed for acid-insoluble (10% TCA) radioactivity. Decay corrected ^123 I-radioactivity was measured in a Packard AutoGamma 5550 Spectrometer. Samples were stored for 1 week to allow for ^123 I decay (12 half lives), and recounted afterwards in the Packard B1600 TriCarb beta spectrometer to determine ^3 H- and ^14 C-radioactivity.
All radioactivity measurements were expressed as a percent of administered dose per gram of tissue or per unit volume of fluid as described above.
Data analysis. […] These two related measures are useful to evaluate the intensity of the images (e.g., high "sensitivity") and the ability to differentiate between HSV1-TK and endogenous-TK in the images (e.g., high "selectivity"). The "selectivity" measure is not interpreted as a relative sensitivity (i.e., a value of 1 indicating equal sensitivity) of the substrate to HSV1-TK vs. endogenous-TK. […] They are intended for the direct comparison of substrates only.

Series [1] in a line: Quantitative autoradiography of 2-[14C]-FIAU after in vivo transfection of RG2 tumors by the STK retrovirus. Details: species or system rat. Particulars: rat, iv, 50 uCi. How it is done:
(§1) Imaging in vivo transfection of RG2 tumors by the STK retrovirus in experimental animals. […] The left hemisphere was inoculated with gp-STK-A2 vector-producer cells only. Ten days after inoculation, animals were injected i.v. with 50 uCi of 2-[^14 C]-FIAU, killed 24 hours later and the brain was processed for QAR and histology. The HSV1-tk transfected tumor was well visualized on the autoradiographic image (FIG. 11B). […] Surrounding normal brain and the area inoculated only with gp-STK-A2 vector-producer cells are poorly or not at all visualized. […] Quantitative analysis yielded mean activities of 0.34±0.24% dose/g for the in vivo transduced RG2(TK+) and 0.028±0.023% dose/g for the gp-STK-A2 vector-producer cell inoculated area prior to rinsing.

In series [2] the test system is in vivo transduced RG2(TK+) tumor. Described as above. Details: species or system rat. Particulars: 24 h. How it is done:
as §1

The structures appear in SMILES notation. Like-named read-outs stand apart in the source and are kept apart here.

Sequence of HSV1-TK (P0DTH5 whole entry): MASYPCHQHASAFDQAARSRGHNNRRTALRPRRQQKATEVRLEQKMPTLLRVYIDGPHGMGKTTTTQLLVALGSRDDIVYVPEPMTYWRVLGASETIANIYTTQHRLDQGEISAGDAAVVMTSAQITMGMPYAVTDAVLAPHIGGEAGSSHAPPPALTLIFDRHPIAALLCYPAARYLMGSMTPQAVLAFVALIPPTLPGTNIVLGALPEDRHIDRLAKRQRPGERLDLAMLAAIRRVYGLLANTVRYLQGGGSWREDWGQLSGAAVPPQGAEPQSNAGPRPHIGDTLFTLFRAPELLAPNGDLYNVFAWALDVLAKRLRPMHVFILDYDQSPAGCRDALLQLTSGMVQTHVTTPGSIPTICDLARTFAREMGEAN

Take `O=c1[nH]c(=O)n([C@@H]2O[C@H](CO)[C@@H](O)[C@@H]2F)cc1I` [FIAU, 2'-fluoro-5-iodo-1-β-D-arabinofuranosyl-uracil]: the “Sensitivity* Δ(substrate/TdR)/Δ(HSV1TK mRNA/S28 RNA IOD)” value at HSV1-TK is reported as 0.0105. Besides, the tissue uptake at 24 h in series [1] (gp-STK-A2 vector-producer cell inoculated area, prior to rinsing, read-out: mean activity) worked out at 0.028 ± 0.023 %ID/g; in series [1] (in vivo transduced RG2(TK+) tumor, prior to rinsing, read-out: mean activity), 0.34 ± 0.24 %ID/g; in series [1] (in vivo transduced RG2(TK+) tumor, read-out: peak activity), 0.96 %ID/g. Also, in series [2] (level of detection on the autoradiograms), the adjacent brain activity result is reported as “below the level of detection”. The peak activity in series [2] (in vivo transduced RG2(TK+) tumor) came to 0.96 % dose/g.
